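Tested at 5 concentrations; 48 h exposure; 96-well plates; endpoints linearly interpolated, else capped at highest concentration. GI50 = concentration required for 50% inhibition of growth.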 The source made the active and inactive calls. Cut-off read from the data, not from the text of the source: active = GI50 up to about 1.1 µM and inactive = higher.
Experiments:
Test in all cases: NCI-60 cell line screen, 48 h
[1] = tested on: A498
[2] = tested on: EKVX
[3] = tested on: SK-MEL-2
[4] = tested on: MOLT-4
[5] = tested on: NCI/ADR-RES
[6] = tested on: Hs-578T
[7] = tested on: NCI-H460
[8] = tested on: SK-MEL-28
[9] = tested on: RPMI-8226
[10] = tested on: UACC-257
[11] = tested on: OVCAR-4
[12] = tested on: SK-OV-3
[13] = tested on: BT-549
[14] = tested on: IGROV-1
[15] = tested on: SNB-19
[16] = tested on: T47D
[17] = tested on: OVCAR-8
[18] = tested on: HL-60
[19] = tested on: TK-10
[20] = tested on: MDA-MB-435
[21] = tested on: SR
[22] = tested on: SK-MEL-5
[23] = tested on: OVCAR-3
[24] = tested on: PC-3
[25] = tested on: OVCAR-5
[26] = tested on: SNB-75
[27] = tested on: K562
[28] = tested on: HOP-92
[29] = tested on: SF-539
[30] = tested on: A549
[31] = tested on: M14
[32] = tested on: ACHN
[33] = tested on: MCF7
[34] = tested on: HCT-15
[35] = tested on: UACC-62
[36] = tested on: CAKI-1
[37] = tested on: HT-29
[38] = tested on: UO-31
[39] = tested on: KM12
[40] = tested on: 786-0
[41] = tested on: HCC 2998
[42] = tested on: NCI-H522
[43] = tested on: MDA-MB-231
[44] = tested on: CCRF-CEM
[45] = tested on: HOP-62
[46] = tested on: U-251
[47] = tested on: Malme-3M
[48] = tested on: SW-620
[49] = tested on: LOX IMVI
[50] = tested on: RXF 393
[51] = tested on: SF-268
[52] = tested on: HCT-116
[53] = tested on: NCI-H226
[54] = tested on: SN12C
[55] = tested on: NCI-H23
[56] = tested on: SF-295
[57] = tested on: MDA-N

`Cc1cc(Cl)ccc1NC(=O)/C(Cc1nc2ccc(C(=O)c3ccccc3)cc2nc1O)=N/NC(=O)c1ccncc1` was tested, and the GI50 [1] was > 100 µM (inactive), the GI50 [2] was > 100 µM (inactive) and the GI50 [3] was > 100 µM (inactive). For the same compound, the GI50 [4] was 64.3 µM (inactive), the GI50 [5] was > 100 µM (inactive) and the GI50 [6] was > 100 µM (inactive). For the same compound, the GI50 [7] was > 100 µM (inactive), the GI50 [8] was > 100 µM (inactive) and the GI50 [9] was > 100 µM (inactive). For the same compound, the GI50 [10] was > 100 µM (inactive), the GI50 [11] was > 100 µM (inactive) and the GI50 [12] was > 100 µM (inactive). For the same compound, the GI50 [13] was > 100 µM (inactive), the GI50 [14] was > 100 µM (inactive) and the GI50 [15] was > 100 µM (inactive). The GI50 [16] was > 100 µM (inactive), the GI50 [17] was > 100 µM (inactive) and the GI50 [18] was 95.9 µM (inactive). The GI50 [19] was > 100 µM (inactive), the GI50 [20] was 42.4 µM (inactive) and the GI50 [21] was 21.7 µM (inactive). For the same compound, the GI50 [22] was 92 µM (inactive), the GI50 [23] was > 100 µM (inactive) and the GI50 [24] was > 100 µM (inactive). For the same compound, the GI50 [25] was > 100 µM (inactive), the GI50 [26] was > 100 µM (inactive) and the GI50 [27] was 63.7 µM (inactive). The GI50 [28] was > 100 µM (inactive), the GI50 [29] was > 100 µM (inactive) and the GI50 [30] was > 100 µM (inactive). The GI50 [31] was > 100 µM (inactive), the GI50 [32] was > 100 µM (inactive) and the GI50 [33] was > 100 µM (inactive). The GI50 [34] was 92 µM, the GI50 [35] was 97.3 µM (inactive) and the GI50 [36] was > 100 µM (inactive). The GI50 [37] was > 100 µM (inactive), the GI50 [38] was 53.8 µM (inactive) and the GI50 [39] was 39.1 µM (inactive). The GI50 [40] was > 100 µM (inactive), the GI50 [41] was > 100 µM (inactive) and the GI50 [42] was > 100 µM (inactive). For the same compound, the GI50 [43] was > 100 µM (inactive), the GI50 [44] was > 100 µM (inactive) and the GI50 [45] was > 100 µM (inactive). The GI50 [46] was > 100 µM (inactive), the GI50 [47] was > 100 µM (inactive) and the GI50 [48] was > 100 µM (inactive). The GI50 [49] was > 100 µM (inactive), the GI50 [50] was > 100 µM (inactive) and the GI50 [51] was > 100 µM (inactive). The GI50 [52] was 50.6 µM (inactive), the GI50 [53] was 1.72 µM (inactive) and the GI50 [54] was > 100 µM (inactive). For the same compound, the GI50 [55] was > 100 µM (inactive), the GI50 [56] was > 100 µM (inactive) and the GI50 [57] was 97.3 µM (inactive).
In the case of `CC(=O)c1cccc(NC(=O)/C(=N\NC(=S)NN)C2C(=O)Nc3ccccc3[S+]2[O-])c1` (stereo not given), the GI50 [1] was > 100 µM (inactive), the GI50 [2] was 39.1 µM (inactive) and the GI50 [3] was > 100 µM (inactive). For the same compound, the GI50 [4] was > 100 µM (inactive), the GI50 [5] was > 100 µM (inactive) and the GI50 [6] was > 100 µM (inactive). The GI50 [8] was > 100 µM (inactive), the GI50 [9] was > 100 µM (inactive) and the GI50 [10] was > 100 µM (inactive). The GI50 [12] was > 100 µM (inactive), the GI50 [13] was > 100 µM (inactive) and the GI50 [14] was > 100 µM (inactive). For the same compound, the GI50 [15] was > 100 µM (inactive), the GI50 [16] was > 100 µM (inactive) and the GI50 [17] was > 100 µM (inactive). The GI50 [18] was > 100 µM (inactive), the GI50 [19] was > 100 µM (inactive) and the GI50 [20] was > 100 µM (inactive). For the same compound, the GI50 [21] was > 100 µM (inactive), the GI50 [22] was > 100 µM (inactive) and the GI50 [23] was > 100 µM (inactive). For the same compound, the GI50 [24] was > 100 µM (inactive), the GI50 [25] was > 100 µM (inactive) and the GI50 [26] was > 100 µM (inactive). The GI50 [27] was > 100 µM (inactive), the GI50 [28] was 83.8 µM (inactive) and the GI50 [29] was > 100 µM (inactive). For the same compound, the GI50 [30] was > 100 µM (inactive), the GI50 [31] was > 100 µM (inactive) and the GI50 [32] was > 100 µM (inactive). For the same compound, the GI50 [33] was > 100 µM (inactive), the GI50 [35] was > 100 µM (inactive) and the GI50 [36] was > 100 µM (inactive). For the same compound, the GI50 [37] was > 100 µM (inactive), the GI50 [38] was > 100 µM (inactive) and the GI50 [39] was > 100 µM (inactive). For the same compound, the GI50 [40] was > 100 µM (inactive), the GI50 [42] was > 100 µM (inactive) and the GI50 [43] was > 100 µM (inactive). For the same compound, the GI50 [44] was > 100 µM (inactive), the GI50 [45] was > 100 µM (inactive) and the GI50 [46] was > 100 µM (inactive). The GI50 [47] was > 100 µM (inactive), the GI50 [48] was > 100 µM (inactive) and the GI50 [49] was > 100 µM (inactive). The GI50 [50] was > 100 µM (inactive), the GI50 [51] was > 100 µM (inactive) and the GI50 [52] was > 100 µM (inactive). The GI50 [53] was > 100 µM (inactive), the GI50 [54] was > 100 µM (inactive) and the GI50 [55] was > 100 µM (inactive). For the same compound, the GI50 [56] was > 100 µM (inactive) and the GI50 [57] was > 100 µM (inactive).

— ChEMBL document CHEMBL1201862, “PubChem BioAssay data set” (2004)
